Values quoted from earlier work in patent US20100076037A1, “Methods of Treating Neuropathic Pain with Agonists of PPAR-gamma” (priority 2006, published 2010).
Like-named read-outs stand apart in the source and are kept apart here.

Legend:
PPARalpha = target: T1, PPARalpha (Homo sapiens, UniProt Q07869); conditions: first value of the pair given as α/γ; read-out: EC50 for PPARalpha agonism; cited from earlier work
T1 sequence (Q07869 1-468): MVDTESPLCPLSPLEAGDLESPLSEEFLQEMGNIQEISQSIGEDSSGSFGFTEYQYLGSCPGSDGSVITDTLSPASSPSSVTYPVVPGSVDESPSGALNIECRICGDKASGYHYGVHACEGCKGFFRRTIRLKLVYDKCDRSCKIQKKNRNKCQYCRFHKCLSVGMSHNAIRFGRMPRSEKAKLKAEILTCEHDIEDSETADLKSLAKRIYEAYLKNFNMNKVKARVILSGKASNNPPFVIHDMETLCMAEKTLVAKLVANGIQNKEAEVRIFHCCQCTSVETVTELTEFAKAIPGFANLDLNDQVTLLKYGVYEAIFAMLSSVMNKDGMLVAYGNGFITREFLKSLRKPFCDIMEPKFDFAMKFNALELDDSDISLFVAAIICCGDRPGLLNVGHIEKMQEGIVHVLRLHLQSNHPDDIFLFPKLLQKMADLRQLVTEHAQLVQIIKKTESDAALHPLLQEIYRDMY

PPARγ = PPARγ (Homo sapiens, UniProt P37231); conditions: second value of the pair printed as α/γ; read-out: EC50 for PPAR γ agonism; cited from earlier work
Sequence of PPARγ (P37231 whole entry, species assumed): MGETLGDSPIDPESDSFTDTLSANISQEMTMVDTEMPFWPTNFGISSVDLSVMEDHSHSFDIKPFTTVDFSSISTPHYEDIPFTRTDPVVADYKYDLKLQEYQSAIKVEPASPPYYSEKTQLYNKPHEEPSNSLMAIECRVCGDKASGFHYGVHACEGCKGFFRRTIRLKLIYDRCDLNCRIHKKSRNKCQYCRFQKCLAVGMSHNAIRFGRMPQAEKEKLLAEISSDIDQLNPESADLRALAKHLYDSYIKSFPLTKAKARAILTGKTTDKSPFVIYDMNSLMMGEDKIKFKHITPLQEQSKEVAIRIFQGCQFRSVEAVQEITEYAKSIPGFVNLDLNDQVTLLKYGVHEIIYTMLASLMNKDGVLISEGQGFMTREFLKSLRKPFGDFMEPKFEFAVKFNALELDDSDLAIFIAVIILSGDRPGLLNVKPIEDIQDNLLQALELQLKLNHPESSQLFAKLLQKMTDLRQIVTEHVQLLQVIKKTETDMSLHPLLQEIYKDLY

db/db mice = conditions: cited from earlier work
ob/ob mice [1] = conditions: cited from earlier work
[2] = cited from earlier work
[3] = presence and absence of insulin; cited from earlier work
cytochrome P450 (CYP)4A = conditions: 0.13 microg/kg; cited from earlier work
human macrophages = conditions: 5 microM; cells exposed to high fatty acids and TGs; cited from earlier work
obese Zucker rats = conditions: cited from earlier work
[4] = test system: arterial smooth muscle cells (SMCs); conditions: 5 or 10 microM; cited from earlier work
[5] = test system: apoE*3 Leiden transgenic mice; conditions: cited from earlier work
diabetic patients = conditions: human, in vivo; cited from earlier work
[6] = test system: human apoB/CETP double-transgenic mouse; conditions: tesaglitazar 1 microM/kg/day for 2 weeks; cited from earlier work
high-fat-fed Wistar rats = conditions: cited from earlier work
[7] = test system: multidrug resistance protein 2; conditions: cited from earlier work
[8] = cited from earlier work; remark: listed apart in the source
mPPARalpha = mPPARalpha (Mus musculus, UniProt P23204); conditions: read-out: EC50 reporter gene assay, U2 OS cells; cited from earlier work
Sequence of mPPARalpha (P23204 whole entry): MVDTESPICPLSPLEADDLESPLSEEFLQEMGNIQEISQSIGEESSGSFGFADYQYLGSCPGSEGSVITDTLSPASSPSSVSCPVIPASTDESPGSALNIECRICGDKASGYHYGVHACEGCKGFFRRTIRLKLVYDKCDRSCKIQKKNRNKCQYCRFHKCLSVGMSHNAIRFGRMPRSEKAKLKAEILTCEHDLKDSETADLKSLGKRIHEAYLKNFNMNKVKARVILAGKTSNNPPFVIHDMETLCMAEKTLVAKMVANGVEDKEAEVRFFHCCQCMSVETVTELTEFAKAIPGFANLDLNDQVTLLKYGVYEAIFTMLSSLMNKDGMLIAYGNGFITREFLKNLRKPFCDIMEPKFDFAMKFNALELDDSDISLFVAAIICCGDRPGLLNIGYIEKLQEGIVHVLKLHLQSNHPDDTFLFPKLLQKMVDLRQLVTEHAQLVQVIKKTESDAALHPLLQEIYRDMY

PPARalpha target protein = conditions: HepG2; cited from earlier work
[9] = test system: non-diabetic but insulin-resistant patients; conditions: cited from earlier work; for reduction of prevalence of metabolic syndrome: NCEP ATPIII criteria
type 2 diabetic patients = conditions: cited from earlier work; for decrease of mean fasting plasma glucose, placebo-corrected: 12 weeks
P-glycoprotein = target: T2, P-glycoprotein (Homo sapiens, UniProt P08183); conditions: cited from earlier work
T2 construct: host or cells: Caco2 and MDCK-MDR1 monolayers (tie to the P-gp statement is grammatically loose)
T2 sequence (P08183 whole entry): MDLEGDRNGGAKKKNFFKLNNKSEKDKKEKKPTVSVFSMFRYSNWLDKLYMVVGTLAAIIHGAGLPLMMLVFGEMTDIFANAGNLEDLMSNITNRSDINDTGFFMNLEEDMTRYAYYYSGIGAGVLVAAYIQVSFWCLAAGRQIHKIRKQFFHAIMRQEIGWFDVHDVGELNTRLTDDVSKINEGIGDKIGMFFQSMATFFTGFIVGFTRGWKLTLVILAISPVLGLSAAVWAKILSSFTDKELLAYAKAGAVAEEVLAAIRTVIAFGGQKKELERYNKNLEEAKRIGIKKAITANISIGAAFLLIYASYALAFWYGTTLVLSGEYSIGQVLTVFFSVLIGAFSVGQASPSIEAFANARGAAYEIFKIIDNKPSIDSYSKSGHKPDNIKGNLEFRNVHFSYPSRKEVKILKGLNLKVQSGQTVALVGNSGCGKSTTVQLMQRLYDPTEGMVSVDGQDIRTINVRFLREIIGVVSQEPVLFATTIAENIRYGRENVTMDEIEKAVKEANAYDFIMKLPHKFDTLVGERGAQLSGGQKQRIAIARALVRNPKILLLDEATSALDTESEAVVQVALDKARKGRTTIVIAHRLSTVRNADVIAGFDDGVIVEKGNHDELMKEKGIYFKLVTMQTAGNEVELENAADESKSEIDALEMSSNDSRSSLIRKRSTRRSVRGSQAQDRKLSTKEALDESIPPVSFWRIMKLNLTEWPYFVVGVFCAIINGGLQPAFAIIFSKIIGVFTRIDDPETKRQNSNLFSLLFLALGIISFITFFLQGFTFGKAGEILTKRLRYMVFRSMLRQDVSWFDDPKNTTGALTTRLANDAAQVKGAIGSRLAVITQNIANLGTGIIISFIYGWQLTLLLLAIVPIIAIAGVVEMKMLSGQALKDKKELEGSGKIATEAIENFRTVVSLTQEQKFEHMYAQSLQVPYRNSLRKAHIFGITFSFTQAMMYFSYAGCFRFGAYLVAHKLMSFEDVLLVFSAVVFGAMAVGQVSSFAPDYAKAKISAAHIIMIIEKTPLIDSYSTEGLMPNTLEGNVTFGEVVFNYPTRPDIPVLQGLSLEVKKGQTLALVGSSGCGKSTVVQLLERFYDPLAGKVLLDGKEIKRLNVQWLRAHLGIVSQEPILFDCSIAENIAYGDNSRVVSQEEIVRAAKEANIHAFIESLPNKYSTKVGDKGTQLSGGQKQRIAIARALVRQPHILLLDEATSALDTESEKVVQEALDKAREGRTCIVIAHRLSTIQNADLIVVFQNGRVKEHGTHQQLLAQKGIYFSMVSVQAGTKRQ

[10] = 1 mg, cited from earlier work
ob/ob mice [11] = conditions: cited from earlier work; remark: listed apart in the source
[12] = test system: recombinant human CYPs (CYP1A2, CYP2A6, CYP2C8, CYP2C9, CYP2C19, CYP2D6 and CYP3A4); conditions: 0.09 to 200 microM; cited from earlier work
[13] = healthy males; cited from earlier work
[14] = dose for 25% reduction in fasting plasma glucose, insulin and serum TG

In the case of `O=C1NC(=O)C(Cc2ccc3cc(OCc4ccccc4F)ccc3c2)S1` (stereo not shown) [MCC-555], the EC50 (PPARalpha) is given as 3 µM and the EC50 (PPARγ) is given as 0.1 µM.
For `Cc1oc(-c2ccccc2)nc1CCOc1ccc(CC2SC(=O)NC2=O)c2sccc12` (stereo not shown) [edaglitazone], the “lowering of free fatty acid levels” value (db/db mice; 1 mg/kg) is given as 16%, the “reduction in serum triglyceride levels” value (db/db mice; 1 mg/kg) is given as 14% and the “lowering of free fatty acid levels” value (db/db mice; 10 mg/kg) is given as 70%. The “reduction in serum triglyceride levels” value (db/db mice; 10-mg·kg dose) was 70%, the “lowering of non-starved blood glucose” value (db/db mice; 25-mg dose, 12 days) was 52% and the hypoglycemia (db/db mice; chronic treatment with 100 mg/kg) was “did not result in hypoglycemia”. For the same molecule, the “reduction of AUC(glucose)” value (ob/ob mice [1]; 1 mg/kg, 14 days) was 44%, the “reduction in non-starved blood glucose concentration” value (ob/ob mice [1]; 0.25 to 10 mg/kg, 12 days) was 29% and the serum insulin levels (ob/ob mice [1]; all doses) was “dose-dependently decreased”. For the same molecule, the “reduction in non-starved blood glucose concentration” value (ob/ob mice [1]; higher doses) was 45%, the accumulation ([2]; once-daily dosing over 6 weeks) was “did not accumulate” and the tolerability ([2]; single ascending dose) was “very well tolerated”. The “time to plasma peak levels after dosing” value ([2]; single doses 1-160 mg, healthy males) was 2 to 4 h and the “rate of glucose oxidation” value [3] was “increased”.
For `CCO[C@@H](Cc1ccc(OCCc2ccc(OS(C)(=O)=O)cc2)cc1)C(=O)O` [tesaglitazar, (S)-2-ethoxy-3-[4-(2-{4-methanesulfonyloxyphenyl}ethoxy)phenyl]propanoic acid], the “upregulation of CYP4A relative to controls” value (cytochrome P450 (CYP)4A) is given as 15 fold, the “cholesterol efflux, % of the control level” value (human macrophages) is given as 156% and the “free fatty acid utilization in adipose tissue, skeletal muscle, liver and heart” value (obese Zucker rats; 3 micromol/kg/day for 3 weeks, insulin level-clamped) is given as “reduced”. For the same molecule, the “glucose utilization in muscle and fat” value (obese Zucker rats; 3 micromol/kg/day for 3 weeks) was “increased”, the “measures of whole-body insulin sensitivity” value (obese Zucker rats; 3 micromol/kg/day orally, 3 or 4 weeks) was “consistently improved or normalized” and the “normalization of total insulin” value (obese Zucker rats; basal conditions, toward lean control) was 76%. For the same molecule, the “normalization of C-peptide” value (obese Zucker rats; basal conditions) was 61%, the “normalization of TGs” value (obese Zucker rats; basal conditions) was 67% and the “normalization of free fatty acids” value (obese Zucker rats; basal conditions) was 15%. For the same molecule, the “glucose infusion rate higher than required in lean controls” value (obese Zucker rats; clamp conditions) was 13%, the “increase of rate of glucose infusion vs untreated rats” value (obese Zucker rats; clamp conditions) was 7.6 fold and the “normalization of C-peptide” value (obese Zucker rats; clamp conditions) was 63%. The “normalization of TGs” value (obese Zucker rats; clamp conditions) was 72%, the “normalization of free fatty acids” value (obese Zucker rats; clamp conditions) was 70% and the “normalization of total insulin” value (obese Zucker rats; clamp conditions) was 82%. The “VLDL apolipoprotein (apo)CIII content” value (obese Zucker rats; fasted obese Zucker rats) was “reduced”, the “increase of plasma TG clearance” value (obese Zucker rats; fasted obese Zucker rats) was 490% and the “reduction of rate of hepatic TG production” value (obese Zucker rats; fasted obese Zucker rats) was 47%. The “normalization of postprandial excursion in plasma glucose” value (obese Zucker rats; glucose/TG (1.7/2.0 g/kg) test meal) was 80%, the “normalization of postprandial excursion in TGs” value (obese Zucker rats; glucose/TG test meal) was 92% and the “normalization of postprandial excursion in free fatty acids” value (obese Zucker rats; glucose/TG test meal) was 75%. The “normalization of postprandial excursion in insulin” value (obese Zucker rats; glucose/TG test meal) was 85%, the “decrease of affinity of human LDL for unbound GAGs” value [4] was 3- to 4 fold and the “linoleate-induced production of LDL-binding GAGs” value [4] was “abolished”. The “reduction of plasma cholesterol levels” value ([5]; 0.5 microg/kg of diet, low- or high-fat diets) was “approximately 21.5%”, the “reduction of TG levels” value ([5]; 0.5 microg/kg of diet) was “approximately 40%” and the “reduction of cross-sectional area of atheromic lesions in the aortic root” value ([5]; high-fat fed, 28 weeks) was 92%. For the same molecule, the “reduction of cross-sectional area of atheromic lesions in the aortic root” value ([5]; low-fat fed, 16 weeks) was 65%, the rates of edema (diabetic patients) was 4.2 to 6.8% and the “plasma TGs, apoB100 and plasma CETP activity” value [6] was “reduced”. The “basal TG levels” value (high-fat-fed Wistar rats; 1 micromol/kg/day for 1 week) was “reduced”, the “increase of glucose infusion rate during clamping” value (high-fat-fed Wistar rats; 1 micromol/kg/day for 1 week) was 29% and the “reduction of basal plasma insulin levels” value (high-fat-fed Wistar rats; 1 micromol/kg/day for 1 week) was 36%. For the same molecule, the “increase of uptake of non-esterified fatty acids in white adipose tissue” value (high-fat-fed Wistar rats; 1 micromol/kg/day for 3 weeks, basal conditions) was 52%, the “transport in Caco2 and MDCK-MDR1 monolayers” value [7] was “apparently transported by multidrug resistance protein 2” and the AUC ([8]; 1 mg intravenous) was 16.2 micromolxh/l. The AUC ([8]; 1 mg oral) was 16.1 micromolxh/l, the adverse events ([8]; 1 mg po or iv, healthy volunteers) was “no serious adverse events” and the oral bioavailability ([8]; 1 mg) was ~100%. For the same molecule, the “clearance (Cl)” value ([8]; in vivo) was 0.16 L/h, the elimination half-life ([8]; in vivo) was ~45 h and the protein-bound ([8]; in vivo) was 99.9%. For the same molecule, the “volume of distribution at steady state (Vdss)” value ([8]; in vivo) was 9.1 L, the Cmax ([8]; single 1-mg oral dose) was 610 nM and the “median Tmax” value ([8]; single 1-mg oral dose) was ~0.5 h. For the same molecule, the EC50 (mPPARalpha) was 32 µM, the “potency relative to bezafibrate” value (PPARalpha target protein) was “approximately 10 fold” and the “mean increase in serum creatinine” value ([9]; 0.1 mg) was 1 µmol/L. The “patients with adverse events” value ([9]; 0.1 mg) was 65%, the “reduction in mean hemoglobin level” value ([9]; 0.1 mg) was 0.16 mmol/L and the “patients with adverse events” value ([9]; 0.25 mg) was 51%. For the same molecule, the “reduction of prevalence of metabolic syndrome” value ([9]; 0.5 mg) was 49%, the “fall in prevalence of impaired fasting glucose” value ([9]; 0.5 mg) was 23% and the “patients with adverse events” value ([9]; 0.5 mg) was 67%. The “mean reduction in fasting serum TGs, placebo-corrected” value ([9]; 1 mg, 12 weeks) was 37%, the “reduction of prevalence of metabolic syndrome” value ([9]; 1.0 mg) was 45% and the “reduction of AUC for plasma free fatty acids” value ([9]; 1 mg, after lipid-rich meal) was 29%. For the same molecule, the “reduction of AUC for plasma insulin” value ([9]; 1 mg, after lipid-rich meal) was 31%, the “reduction of AUC for serum TGs” value ([9]; 1 mg, after lipid-rich meal) was 41% and the “reduction of AUC for serum glycerol” value ([9]; 1 mg, after lipid-rich meal) was 34%. The “reduction of plasma glucose level at 2 h” value ([9]; 1 mg, after lipid-rich meal) was 27%, the “increase in serum HDL-cholesterol” value ([9]; 1 mg) was 16% and the “mean reduction in fasting insulin” value ([9]; 1 mg) was 35%. The “mean reduction in non-HDL-cholesterol” value ([9]; 1 mg) was 15%, the “mean reduction in non-esterified fatty acids” value ([9]; 1 mg) was 40% and the “mean reduction in plasma glucose concentration” value ([9]; 1 mg) was 0.47 mmol/L. The “reduction in mean hemoglobin level” value ([9]; 1 mg) was 0.55 mmol/L, the “fall in prevalence of impaired fasting glucose” value ([9]; 1.0 mg) was 59% and the “mean increase in serum creatinine” value ([9]; 1.0 mg) was 8 µmol/L. For the same molecule, the “patients with adverse events” value ([9]; 1.0 mg) was 60%, the increase in weight ([9]; 0.5 and 1 mg, 12 weeks) was “approximately 1 kg” and the “increase of ApoA-1” value ([9]; 1-mg dose) was 4%. The “reduction of ApoB” value ([9]; 1-mg dose) was 12%, the “reduction of ApoB/ApoA-1 ratio” value ([9]; 1-mg dose) was 16% and the “reduction of ApoCIII” value ([9]; 1-mg dose) was 25%. For the same molecule, the “decrease of mean fasting plasma glucose, placebo-corrected” value (shortened to “decrease of mean fasting plasma glucose”) (type 2 diabetic patients; 0.1 mg once daily) was 8.9 mg/dL, the “decrease of mean fasting plasma glucose” value (type 2 diabetic patients; 0.5 mg) was 30.3 mg/dL and the “decrease of mean fasting plasma glucose” value (type 2 diabetic patients; 1.0 mg) was 41.1 mg/dL. The “greatest increase in serum HDL-cholesterol” value (type 2 diabetic patients; 1 mg) was 15.0%, the “decrease of mean fasting plasma glucose” value (type 2 diabetic patients; 2.0 mg) was 55.0 mg/dL and the “decrease of mean fasting plasma glucose” value (type 2 diabetic patients; 3.0 mg) was 60.9 mg/dL. The “greatest reduction of LDL-cholesterol” value (type 2 diabetic patients; 3 mg) was 17.3%, the “greatest reduction of VLDL-cholesterol” value (type 2 diabetic patients; 3 mg) was 52.5% and the “maximum reduction in free fatty acids” value (type 2 diabetic patients; 2-mg dose) was 36.7%. For the same molecule, the “maximum reduction in serum TGs” value (type 2 diabetic patients; 2-mg dose) was 41.0%, the “substrate of P-glycoprotein” value (P-glycoprotein) was “not substrates of P-glycoprotein” and the Tmax ([10]; fasted state) was 1 h. For the same molecule, the Tmax ([10]; fed state) was 2.5 h, the hyperglycemia (ob/ob mice [11]; 1 micromol/kg/day for 1 week) was “normalized” and the “potency relative to pioglitazone” value (ob/ob mice [11]; [14]) was 250 fold. The “potency relative to rosiglitazone” value (ob/ob mice [11]; [14]) was 7 fold, the “effect on activity of CYP drug metabolizing enzymes” value [12] was “no effect” and the “pharmacokinetic interactions with glibenclamide or metformin” value [13] was “No pharmacokinetic interactions”.
